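Protocol summary: plate cells (96-well), add compound at 5 concentrations, incubate 48 h, interpolate endpoints linearly. The concentration for full growth arrest is given as TGI.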
Legend:
Experiment in all cases: inhibition of tumour cell growth, NCI panel, 48 h
786-0 renal = system: 786-0 renal
A498 renal = system: A498 renal
A549 NSCLC = system: A549 NSCLC
ACHN renal = system: ACHN renal
BT-549 breast = system: BT-549 breast
CAKI-1 renal = system: CAKI-1 renal
CCRF-CEM leukemia = system: CCRF-CEM leukemia
COLO 205 colon = system: COLO 205 colon
DU-145 prostate = system: DU-145 prostate
EKVX NSCLC = system: EKVX NSCLC
HCC-2998 colon = system: HCC-2998 colon
HCT-116 colon = system: HCT-116 colon
HCT-15 colon = system: HCT-15 colon
HL-60(TB) leukemia = system: HL-60(TB) leukemia
HOP-62 NSCLC = system: HOP-62 NSCLC
HOP-92 NSCLC = system: HOP-92 NSCLC
HS 578T breast = system: HS 578T breast
HT29 colon = system: HT29 colon
IGROV1 ovarian = system: IGROV1 ovarian
K-562 leukemia = system: K-562 leukemia
KM12 colon = system: KM12 colon
LOX IMVI melanoma = system: LOX IMVI melanoma
M14 melanoma = system: M14 melanoma
MALME-3M melanoma = system: MALME-3M melanoma
MCF7 breast = system: MCF7 breast
MDA-MB-231 breast = system: MDA-MB-231 breast
MDA-MB-435 = system: MDA-MB-435
MDA-N = system: MDA-N
MOLT-4 leukemia = system: MOLT-4 leukemia
NCI-H226 lung = system: NCI-H226 lung
NCI-H23 lung = system: NCI-H23 lung
NCI-H460 lung = system: NCI-H460 lung
NCI-H522 lung = system: NCI-H522 lung
NCI/ADR-RES ovarian = system: NCI/ADR-RES ovarian
OVCAR-3 ovarian = system: OVCAR-3 ovarian
OVCAR-4 ovarian = system: OVCAR-4 ovarian
OVCAR-5 ovarian = system: OVCAR-5 ovarian
OVCAR-8 ovarian = system: OVCAR-8 ovarian
RXF 393 renal = system: RXF 393 renal
SF-268 CNS = system: SF-268 CNS
SF-295 CNS = system: SF-295 CNS
SF-539 CNS = system: SF-539 CNS
SK-MEL-2 melanoma = system: SK-MEL-2 melanoma
SK-MEL-28 melanoma = system: SK-MEL-28 melanoma
SK-MEL-5 melanoma = system: SK-MEL-5 melanoma
SK-OV-3 ovarian = system: SK-OV-3 ovarian
SN12C renal = system: SN12C renal
SNB-19 CNS = system: SNB-19 CNS
SNB-75 CNS = system: SNB-75 CNS
SW-620 colon = system: SW-620 colon
T-47D breast = system: T-47D breast
TK-10 renal = system: TK-10 renal
U251 CNS = system: U251 CNS
UACC-257 melanoma = system: UACC-257 melanoma
UACC-62 melanoma = system: UACC-62 melanoma
UO-31 renal = system: UO-31 renal
PC-3 prostate = system: PC-3 prostate
RPMI-8226 leukemia = system: RPMI-8226 leukemia

In the case of `CCOP(=O)(OCC)C(C)(CC)NC` (stereo not drawn), the TGI (786-0 renal) is reported as over 100 µM, the TGI (A498 renal) is reported as over 100 µM and the TGI (A549 NSCLC) is reported as over 100 µM. For the same compound, the TGI (ACHN renal) was over 100 µM, the TGI (BT-549 breast) was over 100 µM and the TGI (CAKI-1 renal) was over 100 µM. For the same compound, the TGI (CCRF-CEM leukemia) was 77.1 µM, the TGI (COLO 205 colon) was over 100 µM and the TGI (DU-145 prostate) was over 100 µM. The TGI (EKVX NSCLC) was over 100 µM, the TGI (HCC-2998 colon) was over 100 µM and the TGI (HCT-116 colon) was over 100 µM. The TGI (HCT-15 colon) was over 100 µM, the TGI (HL-60(TB) leukemia) was over 100 µM and the TGI (HOP-62 NSCLC) was over 100 µM. For the same compound, the TGI (HOP-92 NSCLC) was over 100 µM, the TGI (HS 578T breast) was over 100 µM and the TGI (HT29 colon) was over 100 µM. It also gave a TGI (IGROV1 ovarian) of over 100 µM, a TGI (K-562 leukemia) of over 100 µM and a TGI (KM12 colon) of over 100 µM. For the same compound, the TGI (LOX IMVI melanoma) was over 100 µM, the TGI (M14 melanoma) was over 100 µM and the TGI (MALME-3M melanoma) was over 100 µM. The TGI (MCF7 breast) was over 100 µM, the TGI (MDA-MB-231 breast) was over 100 µM and the TGI (MDA-MB-435) was over 100 µM. It also gave a TGI (MDA-N) of over 100 µM, a TGI (MOLT-4 leukemia) of over 100 µM and a TGI (NCI-H226 lung) of over 100 µM. The TGI (NCI-H23 lung) was over 100 µM, the TGI (NCI-H460 lung) was over 100 µM and the TGI (NCI-H522 lung) was over 100 µM. It also gave a TGI (NCI/ADR-RES ovarian) of over 100 µM, a TGI (OVCAR-3 ovarian) of over 100 µM and a TGI (OVCAR-4 ovarian) of over 100 µM. For the same compound, the TGI (OVCAR-5 ovarian) was over 100 µM, the TGI (OVCAR-8 ovarian) was over 100 µM and the TGI (RXF 393 renal) was over 100 µM. For the same compound, the TGI (SF-268 CNS) was over 100 µM, the TGI (SF-295 CNS) was over 100 µM and the TGI (SF-539 CNS) was over 100 µM. For the same compound, the TGI (SK-MEL-2 melanoma) was over 100 µM, the TGI (SK-MEL-28 melanoma) was over 100 µM and the TGI (SK-MEL-5 melanoma) was over 100 µM. For the same compound, the TGI (SK-OV-3 ovarian) was over 100 µM, the TGI (SN12C renal) was over 100 µM and the TGI (SNB-19 CNS) was over 100 µM. The TGI (SNB-75 CNS) was over 100 µM, the TGI (SW-620 colon) was over 100 µM and the TGI (T-47D breast) was over 100 µM. The TGI (TK-10 renal) was over 100 µM, the TGI (U251 CNS) was over 100 µM and the TGI (UACC-257 melanoma) was over 100 µM. The TGI (UACC-62 melanoma) was over 100 µM and the TGI (UO-31 renal) was over 100 µM.

Compound `O=C1C[C@@H](c2ccccc2)O[C@@H](c2ccccc2)C1` has a TGI (786-0 renal) of over 100 µM, a TGI (A549 NSCLC) of over 100 µM and a TGI (BT-549 breast) of over 100 µM. It also gave a TGI (CAKI-1 renal) of over 100 µM, a TGI (CCRF-CEM leukemia) of over 100 µM and a TGI (COLO 205 colon) of over 100 µM. For the same compound, the TGI (DU-145 prostate) was over 100 µM, the TGI (EKVX NSCLC) was over 100 µM and the TGI (HCC-2998 colon) was over 100 µM. For the same compound, the TGI (HCT-116 colon) was over 100 µM, the TGI (HCT-15 colon) was over 100 µM and the TGI (HOP-62 NSCLC) was over 100 µM. It also gave a TGI (HOP-92 NSCLC) of over 100 µM, a TGI (HS 578T breast) of over 100 µM and a TGI (HT29 colon) of over 100 µM. The TGI (IGROV1 ovarian) was over 100 µM, the TGI (K-562 leukemia) was over 100 µM and the TGI (KM12 colon) was over 100 µM. It also gave a TGI (LOX IMVI melanoma) of over 100 µM, a TGI (M14 melanoma) of over 100 µM and a TGI (MALME-3M melanoma) of over 100 µM. It also gave a TGI (MCF7 breast) of over 100 µM, a TGI (MDA-MB-231 breast) of over 100 µM and a TGI (MDA-MB-435) of over 100 µM. The TGI (MDA-N) was over 100 µM, the TGI (MOLT-4 leukemia) was over 100 µM and the TGI (NCI-H226 lung) was over 100 µM. For the same compound, the TGI (NCI-H23 lung) was over 100 µM, the TGI (NCI-H460 lung) was over 100 µM and the TGI (NCI/ADR-RES ovarian) was over 100 µM. For the same compound, the TGI (OVCAR-3 ovarian) was over 100 µM, the TGI (OVCAR-4 ovarian) was over 100 µM and the TGI (OVCAR-5 ovarian) was over 100 µM. The TGI (OVCAR-8 ovarian) was over 100 µM, the TGI (PC-3 prostate) was over 100 µM and the TGI (RPMI-8226 leukemia) was over 100 µM. It also gave a TGI (RXF 393 renal) of over 100 µM, a TGI (SF-268 CNS) of over 100 µM and a TGI (SF-295 CNS) of over 100 µM. It also gave a TGI (SF-539 CNS) of over 100 µM, a TGI (SK-MEL-2 melanoma) of over 100 µM and a TGI (SK-MEL-5 melanoma) of over 100 µM. The TGI (SK-OV-3 ovarian) was over 100 µM, the TGI (SN12C renal) was over 100 µM and the TGI (SNB-19 CNS) was over 100 µM. It also gave a TGI (SNB-75 CNS) of over 100 µM, a TGI (SW-620 colon) of over 100 µM and a TGI (T-47D breast) of over 100 µM. It also gave a TGI (U251 CNS) of over 100 µM, a TGI (UACC-257 melanoma) of over 100 µM and a TGI (UACC-62 melanoma) of over 100 µM. The TGI (UO-31 renal) was over 100 µM.
